Results from paper PMC9950073, “Alleviation of arthritis through prevention of neutrophil extracellular traps by an orally available inhibitor of protein arginine deiminase 4” (Scientific Reports, 2023).

Tests used:
CYP2D6 = biological target: T1, CYP2D6 (Homo sapiens, UniProt P10635); test: CYP inhibition in human liver microsome, CYP2D6; format: in vitro ADME
T1 construct: from tissue; host or cells: human liver microsomes
Protocol: CYP inhibition: Human liver microsome (0.1–0.5 mg/mL for various CYPs) and appropriate probe substrates (2.5–20 µM) were incubated in potassium phosphate buffer with or without JBI-589 for 5 min at 37 °C. The reaction was initiated by addition of NADPH (1 mM), incubated at 37 °C for 10 min and quenched (0.5% Formic acid in internal standard (IS) containing ACN). Samples were then centrifuged and taken for LC–MS/MS analysis. Percent change in metabolite formation for each substrate under above conditions using formula: Percent inhibition = [1 − (test area ratio/control area ratio)] *100.

[1] = test system: collagen induced arthritis; test: Collagen induced arthritis model in DBA/1 mice; format: in vivo; details: Dexamethasone dose not given
human recombinant PAD6 = biological target: T2, human recombinant PAD6 (Homo sapiens, UniProt Q6TGC4); test: PAD6 selectivity biochemical assay measuring ammonia release; details: 10 semi-log concentrations, highest concentration tested 30 µM
T2 construct: purchased Signal Chem T1065-3
T2 sequence (Q6TGC4 1-694): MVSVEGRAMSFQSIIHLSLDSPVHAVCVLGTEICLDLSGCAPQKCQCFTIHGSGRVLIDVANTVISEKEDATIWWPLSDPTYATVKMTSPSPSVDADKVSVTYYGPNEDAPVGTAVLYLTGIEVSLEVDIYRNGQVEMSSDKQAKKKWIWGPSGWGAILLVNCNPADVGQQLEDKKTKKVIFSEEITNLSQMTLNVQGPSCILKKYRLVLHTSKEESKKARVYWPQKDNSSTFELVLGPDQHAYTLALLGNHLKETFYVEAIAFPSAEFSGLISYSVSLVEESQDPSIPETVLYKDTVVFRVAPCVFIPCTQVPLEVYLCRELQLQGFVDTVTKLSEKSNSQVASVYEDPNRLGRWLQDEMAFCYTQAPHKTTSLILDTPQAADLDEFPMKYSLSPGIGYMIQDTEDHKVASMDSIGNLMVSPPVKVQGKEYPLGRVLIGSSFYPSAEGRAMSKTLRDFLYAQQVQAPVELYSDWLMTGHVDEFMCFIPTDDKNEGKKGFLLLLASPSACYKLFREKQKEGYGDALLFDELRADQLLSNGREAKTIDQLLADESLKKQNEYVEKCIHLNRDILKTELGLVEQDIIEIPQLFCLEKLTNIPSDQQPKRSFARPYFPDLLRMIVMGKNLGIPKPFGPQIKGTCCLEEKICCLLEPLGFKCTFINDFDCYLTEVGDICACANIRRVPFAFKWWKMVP

human recombinant PAD2 = biological target: T3, human recombinant PAD2 (Homo sapiens, UniProt Q9Y2J8); test: PAD2 selectivity biochemical assay measuring ammonia release; details: 10 semi-log concentrations, highest concentration tested 30 µM
T3 construct: purchased Cayman Chemicals 10785
T3 sequence (Q9Y2J8 whole entry): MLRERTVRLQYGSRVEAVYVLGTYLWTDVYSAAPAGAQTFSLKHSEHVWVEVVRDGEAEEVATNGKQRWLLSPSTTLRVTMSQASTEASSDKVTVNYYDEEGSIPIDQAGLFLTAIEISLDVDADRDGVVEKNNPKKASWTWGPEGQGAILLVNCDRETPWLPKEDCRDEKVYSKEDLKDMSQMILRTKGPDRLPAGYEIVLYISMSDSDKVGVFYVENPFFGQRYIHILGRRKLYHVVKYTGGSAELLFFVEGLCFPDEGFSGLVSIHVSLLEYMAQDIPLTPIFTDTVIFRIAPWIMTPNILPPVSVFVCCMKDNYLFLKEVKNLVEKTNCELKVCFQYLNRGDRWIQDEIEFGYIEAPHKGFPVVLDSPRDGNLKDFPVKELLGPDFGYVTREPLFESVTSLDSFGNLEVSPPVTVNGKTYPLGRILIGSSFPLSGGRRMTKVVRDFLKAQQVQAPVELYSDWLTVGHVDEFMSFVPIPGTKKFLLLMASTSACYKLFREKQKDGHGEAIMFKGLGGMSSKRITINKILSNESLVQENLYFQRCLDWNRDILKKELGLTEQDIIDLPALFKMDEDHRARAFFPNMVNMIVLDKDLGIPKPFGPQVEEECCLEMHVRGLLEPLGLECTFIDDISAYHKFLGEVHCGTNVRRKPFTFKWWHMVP

PBMCs = test: Cell Titer Glo viability assay, PBMC; format: cell-based, human; details: 24 h, up to 10 µM
Protocol: In a K2EDTA vacutainer, 50 mL blood from a healthy human donor was collected, diluted 1:1 with PBS, and gently layered on Histopaque-1077. The tube was centrifuged at 400 g for 30 min at room temperature in a swinging bucket rotor without brakes or acceleration. After centrifugation, the tubes were gently removed from the centrifuge to avoid disturbing the layers of RBC at the bottom, PBMC in the middle, and clear supernatant at the top. Plasma and platelet-rich upper layer was aspirated using a sterile pipette leaving the mononuclear cell layer (buffy coat) undisturbed at the interphase. This buffy coat layer was transferred with care to a fresh conical 50 mL tube, resuspended in PBS buffer and the tube was centrifuged for 10 min at 300 g at room temperature, and the resultant cell pellet was resuspended in complete RPMI medium. After repeating this step twice, the resultant isolated cells were used for the experiments.
The CellTiter-Glo luminescent cell viability assay was performed on neutrophils/peripheral blood mononuclear cells according to the manufacturer’s instructions (Promega, catalog number: G7570)[35]. Breifly, 0.25 million cells of Neutrophils /PBMC were seeded in a black 96 well clear bottom plate. Compound was added at desired concentrations in 1% DMSO. […] Luminescence was recorded with Perkin Elmer envision 2103 multilabel reader.

Rat pharmacokinetics = details: in vivo, dose not given
Excerpt: Supplement 41598_2023_30246_MOESM1_ESM.docx, table 3: Supplementary Table S3. In vivo pharmacokinetic parameters of JBI-589 in mouse and rat | column: Dose; t1/2; Cmax; C0; AUC0-t; AUC0-∞; CL; F

[2] = JBI-589 50 mg/kg po BID, Etanercept 25 mg/kg IP day 31–45

T1 sequence (P10635 whole entry): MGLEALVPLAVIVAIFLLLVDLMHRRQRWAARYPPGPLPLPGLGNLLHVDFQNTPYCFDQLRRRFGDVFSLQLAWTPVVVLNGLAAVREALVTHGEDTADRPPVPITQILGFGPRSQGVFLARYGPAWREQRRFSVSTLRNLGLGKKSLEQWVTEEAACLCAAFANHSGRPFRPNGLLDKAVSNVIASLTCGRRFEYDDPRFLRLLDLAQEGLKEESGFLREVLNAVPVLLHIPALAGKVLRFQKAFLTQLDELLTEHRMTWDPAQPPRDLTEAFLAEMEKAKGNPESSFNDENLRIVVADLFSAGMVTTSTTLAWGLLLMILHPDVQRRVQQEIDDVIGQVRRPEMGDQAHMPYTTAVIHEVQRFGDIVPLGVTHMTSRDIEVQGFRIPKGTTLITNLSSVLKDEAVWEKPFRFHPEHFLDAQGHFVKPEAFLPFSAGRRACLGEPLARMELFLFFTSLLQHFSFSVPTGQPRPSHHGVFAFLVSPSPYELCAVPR

- inhibition at 10 min, 10 µM (CYP2D6; human liver microsomes, 10 µM, human liver microsome, read-out: CYP2D6 inhibition (% inh @10 µM)): < 50%
- IC50 (CYP2D6; predicted from % inhibition, text says major CYPs tested): > 10 µM
- inhibitory activity against PAD6 (human recombinant PAD6): did not have any inhibitory activity
- inhibitory activity against PAD2 (human recombinant PAD2): did not have any inhibitory activity
- AUC(0-inf) (Rat pharmacokinetics; 2 mg/Kg, IV): 1390 ng·h/mL
- AUC(0-t) (Rat pharmacokinetics; 2 mg/Kg, IV): 1320 ng·h/mL
- C0 (Rat pharmacokinetics; 2 mg/Kg, IV): 451 ng/mL
- Cmax (Rat pharmacokinetics; 2 mg/Kg, IV): 419 ng/mL
- Vd (Rat pharmacokinetics; 2 mg/Kg, IV): 13.2 L/kg
- clearance (Rat pharmacokinetics; 2 mg/Kg, IV): 24.3 mL/min/kg
- half-life (Rat pharmacokinetics; 2 mg/Kg, IV): 6.32 h
- AUC(0-inf) (Rat pharmacokinetics; 10 mg/Kg, PO): 3580 ng·h/mL
- AUC(0-t) (Rat pharmacokinetics; 10 mg/Kg, PO): 3390 ng·h/mL
- Cmax (Rat pharmacokinetics; 10 mg/Kg, PO): 335 ng/mL
- bioavailability (Rat pharmacokinetics; 10 mg/Kg, PO): 51.4%
- half-life (Rat pharmacokinetics; 10 mg/Kg, PO): 5.6 h
SMILES: Cc1c(-c2cc3ccccc3n2Cc2ccc(F)cc2)nc2cc(C(=O)N3CCC[C@@H](N)C3)ccn12 [JBI-589, (R)-(3-aminopiperidin-1-yl)(2-(1-(4-fluorobenzyl)-1H-indol-2-yl)-3-methylimidazo[1,2-a]pyridin-7-yl)methanone]
- clinical score ([1]; JBI-589 50 mg/kg po BID day 0-45, Etanercept 25 mg/kg IP day 31–45): significantly decreased
- bone erosion (histopathology) [1, 2]: significantly decreased
- joint inflammation (histopathology) [1, 2]: significantly decreased
- pannus formation (histopathology) [1, 2]: significantly decreased
- spleen weight ([1]; day 45, JBI-589 50 mg/kg po BID): no adverse effect
- body weight ([1]; end of study, JBI-589 50 mg/kg po BID): no adverse effect
- viability of PBMCs (PBMCs): minimal or no changes
